Drawing on patent US9487490B2, “3-cyclohexenyl and cyclohexyl substituted indole and indazole compounds as RORgammaT inhibitors and uses thereof” (Merck Sharp & Dohme Corp., priority 2012, dated 2016), this text covers IC50 for 27 compounds.

The target in the assay is human RORgammaT-Ligand Binding Domain (LBD) (Homo sapiens (Human), UniProt P51449). Description: RORγ-Ligand Binding Domain TR-FRET assay (co-activator peptide SRC1_2 recruitment). It is filed as biochemical. Particulars: HIS-tagged RORγ-LBD 3 nM, biotinylated SRC1 LXXLL peptide 100 nM, incubated overnight at 4° C., 665 nm/615 nm signal quotient; read-out: Fret IC50. The text has this:
Activation of RORgammaT activity can be measured using, e.g., biochemical TR-FRET assay. In such an assay, interaction of cofactor-derived peptides with human RORgammaT-Ligand Binding Domain (LBD) can be measured.
To identify novel antagonists of RORgammaT, an assay was developed which employs the interaction of RORgammaT with its co-activator peptide SRC1_2. […] The RORγ-Ligand Binding Domain TR-FRET Assay was run according to the following protocol.
HIS-tagged RORγ-LBD protein was expressed in SF9 cells using a baculovirus expression system. The RORγ-LBD protein was purified by glutathione sepharose chromatography. Separately, SF9 cells not expressing any recombinant protein were lysed and the lysate was added to the purified RORγ-LBD at 0.25 μl lysate (from 10,000 SF9 cells)/nM purified protein. The mixture was then diluted in assay buffer (50 mM Tris pH 7.0, 50 mM KCl, 1 mM EDTA, 0.1 mM DTT) to obtain RORγ-LBD final concentration of 3 nM in 384-well assay plate.
Compounds to be tested were injected to the assay plate using Acoustic Droplet Ejection technology by Echo 550 liquid handler (Labcyte, Calif.).

Sequence of human RORgammaT-Ligand Binding Domain (LBD) (P51449 269-508): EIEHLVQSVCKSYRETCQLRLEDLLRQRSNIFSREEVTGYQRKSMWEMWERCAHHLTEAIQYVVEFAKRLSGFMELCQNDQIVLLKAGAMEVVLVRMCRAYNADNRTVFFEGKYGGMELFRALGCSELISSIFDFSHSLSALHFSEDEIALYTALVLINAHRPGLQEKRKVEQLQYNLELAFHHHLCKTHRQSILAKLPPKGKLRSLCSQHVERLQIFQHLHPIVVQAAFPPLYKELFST

Take `C[C@]1(C(=O)O)CC[C@@H](c2nn(C(=O)c3c(Cl)cccc3C(F)(F)F)c3cccc(F)c32)CC1` [Example 9B, (cis)-4-(1-(2-chloro-6-(trifluoromethyl)benzoyl)-4-fluoro-1H-indazol-3-yl)-1-methylcyclohexanecarboxylic acid]: the IC50 is 5020 nM.
In the case of `O=C(O)C1CC=C(c2nn(C(=O)c3c(Cl)cccc3C(F)(F)F)c3cc(C(=O)N4CC(F)C4)ccc23)CC1` (stereo not drawn) [Example 4X, 4-(1-(2-chloro-6-(trifluoromethyl)benzoyl)-6-(3-fluoroazetidine-1-carbonyl)-1H-indazol-3-yl)cyclohex-3-enecarboxylic acid], the IC50 stood at 3 nM.
Turning to `O=C(c1c(Cl)cccc1C(F)(F)F)n1nc([C@H]2CC[C@@H](C(=O)O)CC2)c2ncccc21` [Example 11B, (cis)-4-(1-(2-chloro-6-(trifluoromethyl)benzoyl)-1H-pyrazolo[4,3-b]pyridin-3-yl)cyclohexanecarboxylic acid], the IC50 turned out to be 10000 nM.
To `O=C(O)C1CC=C(c2nn(C(=O)c3c(Cl)cccc3C(F)(F)F)c3cc(C(=O)N4CC(O)C4)ccc23)CC1` (stereo not drawn) [Example 4W, 4-(1-(2-chloro-6-(trifluoromethyl)benzoyl)-6-(3-hydroxyazetidine-1-carbonyl)-1H-indazol-3-yl)cyclohex-3-enecarboxylic acid] belongs 3 nM; to `C[C@@H]1CN(C(=O)c2ccc3c(C4=CCC(C(=O)O)CC4)nn(C(=O)c4c(Cl)cccc4C(F)(F)F)c3c2)C[C@H](C)O1` (stereo partly drawn) [Example 4M, 4-(1-(2-chloro-6-(trifluoromethyl)benzoyl)-6-((2R,6S)-2,6-dimethylmorpholine-4-carbonyl)-1H-indazol-3-yl)cyclohex-3-enecarboxylic acid], 21 nM; to `Cc1cccc(Cl)c1C(=O)n1nc(C2=CCC(C(=O)O)CC2)c2ncccc21` (stereo not drawn) [Example 1L, 4-(1-(2-chloro-6-methylbenzoyl)-1H-pyrazolo[4,3-b]pyridine-3-yl)cyclohex-3-enecarboxylic acid], 123 nM.
To `C[C@H]1CN(C(=O)c2ccc3c(C4=CCC(C(=O)O)CC4)nn(C(=O)c4c(Cl)cccc4C(F)(F)F)c3c2)CCO1` (stereo partly drawn) [Example 4R, 4-(1-(2-chloro-6-(trifluoromethyl)benzoyl)-6-((S)-2-methylmorpholine-4-carbonyl)-1H-indazol-3-yl)cyclohex-3-enecarboxylic acid] belongs 21 nM.
In the case of `COC1CN(C(=O)c2ccc3c(C4=CCC(C(=O)O)CC4)nn(C(=O)c4c(Cl)cccc4C4CC4)c3c2)C1` (single isomer, unassigned) [Example 2A, (R or S)-4-(1-(2-chloro-6-cyclopropylbenzoyl)-6-(3-methoxyazetidine-1-carbonyl)-1H-indazol-3-yl)cyclohex-3-enecarboxylic acid], the IC50 is 2 nM.
To `O=C(O)C1CC=C(c2nn(C(=O)c3c(Cl)cccc3C(F)(F)F)c3cc(C(=O)N4CCOCC4)ccc23)CC1` (stereo not drawn) [Example 4L, 4-(1-(2-chloro-6-(trifluoromethyl)benzoyl)-6-(morpholine-4-carbonyl)-1H-indazol-3-yl)cyclohex-3-enecarboxylic acid] belongs 36 nM; to `O=C(O)C1CC=C(c2nn(C(=O)c3c(Cl)cccc3C(F)(F)F)c3ccccc23)CC1` (stereo not drawn) [Example 1H, 4-(1-(2-chloro-6-(trifluoromethyl)benzoyl)-1H-indazol-3-yl)cyclohex-3-enecarboxylic acid], 20 nM; to `COC1CN(C(=O)c2ccc3c(C4=CCC(C(=O)O)CC4)nn(C(=O)c4c(Cl)cccc4C(F)(F)F)c3c2)C1` (stereo not drawn) [Example 4E, 4-(1-(2-chloro-6-(trifluoromethyl)benzoyl)-6-(3-methoxyazetidine-1-carbonyl)-1H-indazol-3-yl)cyclohex-3-enecarboxylic acid], 2 nM.
Take `CC1(c2nn(C(=O)c3c(Cl)cccc3C(F)(F)F)c3cccc(F)c23)CCC(C(=O)O)CC1` (stereo not drawn) [Example 7A, 4-(1-(2-chloro-6-(trifluoromethyl)benzoyl)-4-fluoro-1H-indazol-3-yl)-4-methylcyclohexanecarboxylic acid]: the IC50 came to 1880 nM.
To `CC1C=C(c2nn(C(=O)c3c(Cl)cccc3C(F)(F)F)c3cccnc23)CCC1C(=O)O` (stereo not drawn) [Example 1G, 4-(1-(2-chloro-6-(trifluoromethyl)benzoyl)-1H-pyrazolo[4,3-b]pyridin-3-yl)-2-methylcyclohex-3-enecarboxylic acid] belongs 182 nM; to `COCCN(C)C(=O)c1ccc2c(C3=CCC(C(=O)O)CC3)nn(C(=O)c3c(Cl)cccc3C(F)(F)F)c2c1` (stereo not drawn) [Example 4V, 4-(1-(2-chloro-6-(trifluoromethyl)benzoyl)-6-((2-methoxyethyl)(methyl)carbamoyl)-1H-indazol-3-yl)cyclohex-3-enecarboxylic acid], 31 nM.
To `CC(C)N(C)C(=O)c1ccc2c(C3=CCC(C(=O)O)CC3)nn(C(=O)c3c(Cl)cccc3C(F)(F)F)c2c1` (stereo not drawn) [Example 4U, 4-(1-(2-chloro-6-(trifluoromethyl)benzoyl)-6-(isopropyl(methyl)carbamoyl)-1H-indazol-3-yl)cyclohex-3-enecarboxylic acid] belongs 164 nM; to `CN(C(=O)c1ccc2c(C3=CCC(C(=O)O)CC3)nn(C(=O)c3c(Cl)cccc3C(F)(F)F)c2c1)C1CC1` (stereo not drawn) [Example 4C, 4-(1-(2-chloro-6-(trifluoromethyl)benzoyl)-6-(cyclopropyl(methyl)carbamoyl)-1H-indazol-3-yl)cyclohex-3-enecarboxylic acid], 9 nM; to `O=C(O)C1CC=C(c2nn(C(=O)c3c(Cl)cccc3C(F)(F)F)c3cc(C(=O)N4CCCCC4)ccc23)CC1` (stereo not drawn) [Example 4Y, 4-(1-(2-chloro-6-(trifluoromethyl)benzoyl)-6-(piperidine-1-carbonyl)-1H-indazol-3-yl)cyclohex-3-enecarboxylic acid], 159 nM.
With `COC1CN(C(=O)c2ccc3c(C4=CCC(C(=O)O)CC4)nn(C(=O)c4c(Cl)cccc4C4CC4)c3c2)C1` (single isomer, unassigned) [Example 2B, (S or R)-4-(1-(2-chloro-6-cyclopropylbenzoyl)-6-(3-methoxyazetidine-1-carbonyl)-1H-indazol-3-yl)cyclohex-3-enecarboxylic acid], the IC50 stood at 2 nM.
Consider `O=C(O)C1CC=C(c2nn(C(=O)c3c(Cl)cccc3C(F)(F)F)c3cc(C(=O)N4CC(F)(F)C4)ccc23)CC1` (stereo not drawn) [Example 4A, 4-(1-(2-chloro-6-(trifluoromethyl)benzoyl)-6-(3,3-difluoroazetidine-1-carbonyl)-1H-indazol-3-yl)cyclohex-3-enecarboxylic acid], for which the IC50 turned out to be 5 nM.
In the case of `CN(C)C(=O)c1ccc2c(C3=CCC(C(=O)O)CC3)nn(C(=O)c3c(Cl)cccc3C(F)(F)F)c2c1` (stereo not drawn) [Example 1A, 4-(1-(2-chloro-6-(trifluoromethyl)benzoyl)-6-(dimethylcarbamoyl)-1H-indazol-3-yl)cyclohex-3-enecarboxylic acid], the IC50 was 18 nM.
To `CC1(C(=O)O)CC=C(c2nn(C(=O)c3c(Cl)cccc3C3CC3)c3cccc(F)c23)CC1` (stereo not drawn) [Example 1J, 4-(1-(2-chloro-6-cyclopropylbenzoyl)-4-fluoro-1H-indazol-3-yl)-1-methylcyclohex-3-enecarboxylic acid] belongs 7 nM.
To `O=C(NCCO)c1ccc2c(C3=CCC(C(=O)O)CC3)nn(C(=O)c3c(Cl)cccc3C(F)(F)F)c2c1` (stereo not drawn) [Example 1D, 4-(1-(2-chloro-6-(trifluoromethyl)benzoyl)-6-(2-hydroxyethylcarbamoyl)-1H-indazol-3-yl)cyclohex-3-enecarboxylic acid] belongs 774 nM; to `CC1(C(=O)O)CC=C(c2nn(C(=O)c3c(Cl)cccc3C(F)(F)F)c3cccc(Cl)c23)CC1` (stereo not drawn) [Example 1I, 4-(4-chloro-1-(2-chloro-6-(trifluoromethyl)benzoyl)-1H-indazol-3-yl)-1-methylcyclohex-3-enecarboxylic acid], 14 nM; to `O=C(O)C1CC=C(c2nn(C(=O)c3c(Cl)cccc3C(F)(F)F)c3cc(C(=O)N4CCC4)ccc23)CC1` (stereo not drawn) [Example 4D, 4-(6-(azetidine-1-carbonyl)-1-(2-chloro-6-(trifluoromethyl)benzoyl)-1H-indazol-3-yl)cyclohex-3-enecarboxylic acid], 177 nM.
To `COC1CN(C(=O)c2ccc3c(C4=CC[C@](C)(C(=O)O)CC4)nn(C(=O)c4c(Cl)cccc4C4CC4)c3c2)C1` (single isomer, unassigned) [Example 2C, (R or S)-4-(1-(2-chloro-6-cyclopropylbenzoyl)-6-(3-methoxyazetidine-1-carbonyl)-1H-indazol-3-yl)-1-methylcyclohex-3-enecarboxylic acid] belongs 4 nM; to `O=C(O)C1CC=C(c2nn(C(=O)c3c(Cl)cccc3C(F)(F)F)c3cc(C(=O)N4CCCC4)ccc23)CC1` (stereo not drawn) [Example 4F, 4-(1-(2-chloro-6-(trifluoromethyl)benzoyl)-6-(pyrrolidine-1-carbonyl)-1H-indazol-3-yl)cyclohex-3-enecarboxylic acid], 30 nM.
As to `CC1CN(C(=O)c2ccc3c(C4=CCC(C(=O)O)CC4)nn(C(=O)c4c(Cl)cccc4C(F)(F)F)c3c2)CCO1` (stereo not drawn) [Example 4J, 4-(1-(2-chloro-6-(trifluoromethyl)benzoyl)-6-(2-methylmorpholine-4-carbonyl)-1H-indazol-3-yl)cyclohex-3-enecarboxylic acid], the IC50 was determined as 24 nM.

What is called IC50 is the concentration at which inhibition is half-maximal.
